In PubChem BioAssay (NCI):
Several values for one entry are separate records, joined by “and”; a condition that tells them apart may be missing. Equal entries are not always repeated.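 How tested: cells in 96-well plates exposed to compound for 48 hours at five concentrations. GI50 is the concentration that inhibits growth by half. TGI: concentration producing complete growth inhibition.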

Tests used:
Assay in all cases: inhibition of tumour cell growth, NCI panel, 48 h; in the data active means GI50 below about 0.43 µM; inactive means the rest
OVCAR-4 ovarian = tested on: OVCAR-4 ovarian
OVCAR-5 ovarian = tested on: OVCAR-5 ovarian
UACC-62 melanoma = tested on: UACC-62 melanoma
NCI-H23 lung = tested on: NCI-H23 lung
MOLT-4 leukemia = tested on: MOLT-4 leukemia
OVCAR-3 ovarian = tested on: OVCAR-3 ovarian
SF-539 CNS = tested on: SF-539 CNS
SF-268 CNS = tested on: SF-268 CNS
NCI-H226 lung = tested on: NCI-H226 lung
MALME-3M melanoma = tested on: MALME-3M melanoma

N#Cc1ccnc(N2C(=O)CC[C@H]2C(=O)N(c2cncc(F)c2)[C@H](C(=O)NC2CC(F)(F)C2)c2ccccc2Cl)c1
> 100 µM: TGI (OVCAR-4 ovarian) | TGI (OVCAR-5 ovarian) | TGI (UACC-62 melanoma) | TGI (NCI-H23 lung) | TGI (MOLT-4 leukemia) | TGI (OVCAR-3 ovarian) | TGI (SF-539 CNS) | TGI (SF-268 CNS) | TGI (NCI-H226 lung) | TGI (MALME-3M melanoma)
inactive: GI50 (OVCAR-4 ovarian) 39.1 µM | GI50 (OVCAR-5 ovarian) > 100 µM | GI50 (UACC-62 melanoma) 41.2 µM | GI50 (NCI-H23 lung) > 100 µM | GI50 (MOLT-4 leukemia) 30.5 µM | GI50 (OVCAR-3 ovarian) 63.9 µM | GI50 (SF-539 CNS) > 100 µM | GI50 (SF-268 CNS) 56.2 µM | GI50 (NCI-H226 lung) > 100 µM | GI50 (MALME-3M melanoma) > 100 µM

COc1cc(/C=C2\COc3ccc(O)c(O)c3C2=O)cc(OC)c1
7.02 µM: TGI (NCI-H23 lung)
1.92 µM: TGI (OVCAR-3 ovarian)
3.57 µM: TGI (UACC-62 melanoma)
inactive: GI50 (OVCAR-4 ovarian) 2.2 µM | GI50 (OVCAR-5 ovarian) 3.03 µM | GI50 (UACC-62 melanoma) 1.42 µM | GI50 (NCI-H23 lung) 2.36 µM | GI50 (MOLT-4 leukemia) 1.54 µM | GI50 (OVCAR-3 ovarian) 0.596 µM | GI50 (SF-539 CNS) 1.84 µM | GI50 (SF-268 CNS) 1.68 µM | GI50 (NCI-H226 lung) 4.94 µM | GI50 (MALME-3M melanoma) 1.82 µM
28.2 µM: TGI (NCI-H226 lung)
14.2 µM: TGI (OVCAR-4 ovarian)
3.95 µM: TGI (SF-539 CNS)
53.1 µM: TGI (MOLT-4 leukemia)
6.08 µM: TGI (MALME-3M melanoma)
11.5 µM: TGI (OVCAR-5 ovarian)
5.34 µM: TGI (SF-268 CNS)

O=c1c2ccccc2c2nc3ccccc3nc2n1C1CCCCC1
> 100 µM: TGI (OVCAR-4 ovarian) | TGI (OVCAR-5 ovarian) | TGI (UACC-62 melanoma) | TGI (NCI-H23 lung) | TGI (MOLT-4 leukemia) | TGI (OVCAR-3 ovarian) | TGI (SF-539 CNS) | TGI (SF-268 CNS) | TGI (NCI-H226 lung) | TGI (MALME-3M melanoma)

O=C(NC1=NC2C=CC([N+](=O)[O-])=CC2S1)C(=O)Nn1c(=S)[nH]c2ccccc2c1=O (stereo not given)
> 100 µM: TGI (OVCAR-4 ovarian) | TGI (OVCAR-5 ovarian) | TGI (UACC-62 melanoma) | TGI (NCI-H23 lung) | TGI (MOLT-4 leukemia) | TGI (OVCAR-3 ovarian) | TGI (SF-539 CNS) | TGI (SF-268 CNS) | TGI (NCI-H226 lung) | TGI (MALME-3M melanoma)

Cc1nc(NC(=O)CCCN2C(=O)c3cccc4cccc(c34)C2=O)sc1C(=O)Nc1cc(C(=O)NCCCN(C)C)n(C)c1
inactive: GI50 (OVCAR-4 ovarian) 94.8 µM | GI50 (OVCAR-5 ovarian) > 100 µM | GI50 (UACC-62 melanoma) > 100 µM | GI50 (NCI-H23 lung) > 100 µM | GI50 (MOLT-4 leukemia) > 100 µM | GI50 (OVCAR-3 ovarian) > 100 µM | GI50 (SF-539 CNS) > 100 µM | GI50 (SF-268 CNS) > 100 µM | GI50 (NCI-H226 lung) > 100 µM | GI50 (MALME-3M melanoma) > 100 µM
> 100 µM: TGI (OVCAR-4 ovarian) | TGI (OVCAR-5 ovarian) | TGI (UACC-62 melanoma) | TGI (NCI-H23 lung) | TGI (MOLT-4 leukemia) | TGI (OVCAR-3 ovarian) | TGI (SF-539 CNS) | TGI (SF-268 CNS) | TGI (NCI-H226 lung) | TGI (MALME-3M melanoma)

CO[C@@H]1[C@H](OC(=O)NC(=O)CCl)CC[C@]2(CO2)[C@H]1[C@@]1(C)O[C@@H]1CC=C(C)C
35.2 µM: TGI (OVCAR-5 ovarian)
18.5 µM and 18.7 µM: TGI (MALME-3M melanoma)
33.6 µM and 74.5 µM: TGI (SF-268 CNS)
50.4 µM and 50.3 µM: TGI (NCI-H226 lung)
26 µM and 24.1 µM: TGI (UACC-62 melanoma)
28.2 µM and 8.2 µM: TGI (MOLT-4 leukemia)
21.3 µM and 30.7 µM: TGI (OVCAR-3 ovarian)
39.1 µM and 176 µM: TGI (OVCAR-4 ovarian)
23.8 µM and 46.9 µM: TGI (SF-539 CNS)
37 µM and 30.8 µM: TGI (NCI-H23 lung)
inactive: GI50 (OVCAR-4 ovarian) 25.9 µM | GI50 (OVCAR-5 ovarian) 3.44 µM | GI50 (UACC-62 melanoma) 6.21 µM and 4.01 µM | GI50 (NCI-H23 lung) 2.99 µM and 5.94 µM | GI50 (MOLT-4 leukemia) 3.31 µM | GI50 (OVCAR-3 ovarian) 8.68 µM | GI50 (SF-539 CNS) 21.3 µM | GI50 (SF-268 CNS) 20 µM | GI50 (NCI-H226 lung) 23.7 µM | GI50 (MALME-3M melanoma) 4.16 µM
